# Measured values taken from ChEMBL document CHEMBL4138105, “LL-37-derived short antimicrobial peptide KR-12-a5 and its d-amino acid substituted analogs with cell selectivity, anti-biofilm activity, synergistic effect with conventional antibiotics, and anti-inflammatory activity” (Eur J Med Chem, 2017).
# Calls of active or inactive are those of the source. No cut-off for these calls is given here.
# How the values were obtained:
# Pseudomonas aeruginosa [1] = experiment: Antibacterial activity against multidrug-resistant Pseudomonas aeruginosa CCARM 2095 after 24 hrs; format: functional; details: CCARM 2095, 24 h
# Pseudomonas aeruginosa [2] = experiment: Synergistic antibacterial activity against multidrug-resistant Pseudomonas aeruginosa CCARM 2095 after 72 hrs in presence of chloramphenicol by chequerboard assay; format: functional
# Staphylococcus aureus [3] = experiment: Antibacterial activity against Staphylococcus aureus KCTC 1621 after 24 hrs; format: functional; details: KCTC 1621, 24 h
# Staphylococcus aureus [4] = experiment: Antibacterial activity against Staphylococcus aureus KCTC 1621 in presence of 4.5 mM KCl after 24 hrs; format: functional; details: KCTC 1621, 24 h
# Staphylococcus aureus [5] = experiment: Antibacterial activity against Staphylococcus aureus KCTC 1621 in presence of 150 mM NaCl after 24 hrs; format: functional; details: KCTC 1621, 24 h
# Staphylococcus aureus [6] = experiment: Potency index, ratio of LL-37 MIC to compound MIC for methicillin resistant Staphylococcus aureus CCARM 3089; format: functional
# Salmonella typhimurium = experiment: Antibacterial activity against Salmonella typhimurium KCTC 11926 after 24 hrs; format: functional, Salmonella enterica subsp. enterica serovar Typhimurium; details: Salmonella enterica, KCTC 11926, 24 h
# Pseudomonas aeruginosa [7] = experiment: Antibiofilm activity against multidrug-resistant Pseudomonas aeruginosa CCARM 2095 after 24 hrs by crystal violet staining based assay; format: functional
# RAW264.7 [8] = experiment: Anti-inflammatory activity in mouse RAW264.7 cells assessed as reduction in LPS-induced TNF-alpha mRNA expression at 10 uM after 3 hrs by RT-PCR analysis; format: functional, cell-based
# Pseudomonas aeruginosa [9] = experiment: Potency index, ratio of LL-37 MBIC90 to compound MBIC90 for antibiofilm activity against multidrug-resistant Pseudomonas aeruginosa CCARM 2095; format: functional
# Staphylococcus aureus [10] = experiment: Antibacterial activity against methicillin resistant Staphylococcus aureus CCARM 3095 after 24 hrs; format: functional; details: CCARM 3095, 24 h
# Enterococcus faecium [11] = experiment: Potency index, ratio of melittin MIC to compound MIC for Vancomycin-resistant Enterococcus faecium ATCC 51559; format: functional
# [12] = Therapeutic index, ratio of MHC10 for human RBC to MIC for Escherichia coli KCTC 1682; format: toxicity; details: red blood cells (RBC), pooled result: one value given for 6 cell lines, strains, targets or settings, read-out: TI
# Pseudomonas aeruginosa [13] = experiment: Potency index, ratio of melittin MIC to compound MIC for multidrug-resistant Pseudomonas aeruginosa CCARM 2095; format: functional
# Escherichia coli [14] = experiment: Antibacterial activity against Escherichia coli KCTC 1682 in presence of 4.5 mM KCl after 24 hrs; format: functional; details: KCTC 1682, 24 h
# Pseudomonas aeruginosa [15] = experiment: Potency index, ratio of LL-37 MIC to compound MIC for multidrug-resistant Pseudomonas aeruginosa CCARM 2109; format: functional
# Staphylococcus aureus [16] = experiment: Potency index, ratio of melittin MIC to compound MIC for methicillin resistant Staphylococcus aureus CCARM 3090; format: functional
# Staphylococcus aureus [17] = experiment: Potency index, ratio of melittin MIC to compound MIC for methicillin resistant Staphylococcus aureus CCARM 3095; format: functional
# Pseudomonas aeruginosa [18] = experiment: Potency index, ratio of melittin MIC to compound MIC for multidrug-resistant Pseudomonas aeruginosa CCARM 2109; format: functional
# Staphylococcus aureus [19] = experiment: Antibacterial activity against methicillin resistant Staphylococcus aureus CCARM 3089 after 24 hrs; format: functional; details: CCARM 3089, 24 h
# Pseudomonas aeruginosa [20] = experiment: Potency index, ratio of LL-37 MIC to compound MIC for multidrug-resistant Pseudomonas aeruginosa CCARM 2095; format: functional
# Escherichia coli [21] = experiment: Antibacterial activity against Escherichia coli KCTC 1682 in presence of 6 uM NH4Cl after 24 hrs; format: functional; details: KCTC 1682, 24 h
# Escherichia coli [22] = experiment: Antibacterial activity against Escherichia coli KCTC 1682 after 24 hrs; format: functional; details: KCTC 1682, 24 h
# Escherichia coli [23] = experiment: Antibacterial activity against Escherichia coli KCTC 1682 in presence of 2.5 mM CaCl2 after 24 hrs; format: functional; details: KCTC 1682, 24 h
# RAW264.7 [24] = experiment: Anti-inflammatory activity in mouse RAW264.7 cells assessed as reduction in LPS-induced iNOS mRNA expression at 5 uM after 6 hrs by RT-PCR analysis; format: functional, cell-based
# Staphylococcus aureus [25] = experiment: Antibacterial activity against Staphylococcus aureus KCTC 1621 in presence of 2.5 mM CaCl2 after 24 hrs; format: functional; details: KCTC 1621, 24 h
# Staphylococcus aureus [26] = experiment: Antibacterial activity against methicillin resistant Staphylococcus aureus CCARM 3090 after 24 hrs; format: functional; details: CCARM 3090, 24 h
# Staphylococcus aureus [27] = experiment: Potency index, ratio of melittin MIC to compound MIC for methicillin resistant Staphylococcus aureus CCARM 3089; format: functional
# RAW264.7 [28] = experiment: Anti-inflammatory activity in mouse RAW264.7 cells assessed as reduction in LPS-induced MCP-1 mRNA expression at 10 uM after 3 hrs by RT-PCR analysis; format: functional, cell-based
# RAW264.7 [29] = experiment: Cytotoxicity against mouse RAW264.7 cells up to 128 uM after 48 hrs by MTT assay; format: cell-based; details: raw264.7, 48 h
# Pseudomonas aeruginosa [30] = experiment: Synergistic antibacterial activity against multidrug-resistant Pseudomonas aeruginosa CCARM 2095 after 72 hrs in presence of oxacillin by chequerboard assay; format: functional
# [31] = test system: Staphylococcus epidermidis; experiment: Antibacterial activity against Staphylococcus epidermidis KCTC 1917 after 24 hrs; format: functional; details: KCTC 1917, 24 h
# Staphylococcus aureus [32] = experiment: Ratio of MIC for Staphylococcus aureus KCTC 1621 in presence of 20% human serum to MIC for Escherichia coli KCTC 1682 in presence of 20% human serum; format: functional
# Staphylococcus aureus [33] = experiment: Antibacterial activity against Staphylococcus aureus KCTC 1621 assessed as cell membrane disruption at 2 times MIC within 4 mins by Sytox Green dye based fluorescence spectrophotometer assay; format: functional, organism-based
# Enterococcus faecium [34] = experiment: Antibacterial activity against Vancomycin-resistant Enterococcus faecium ATCC 51559 after 24 hrs; format: functional; details: ATCC 51559, 24 h
# Staphylococcus aureus [35] = experiment: Potency index, ratio of LL-37 MIC to compound MIC for methicillin resistant Staphylococcus aureus CCARM 3090; format: functional
# Pseudomonas aeruginosa [36] = experiment: Synergistic antibacterial activity against multidrug-resistant Pseudomonas aeruginosa CCARM 2095 after 72 hrs in presence of ciprofloxacin by chequerboard assay; format: functional
# Escherichia coli [37] = experiment: Antibacterial activity against Escherichia coli KCTC 1682 in presence of 20% human serum after 24 hrs; format: functional; details: KCTC 1682, 24 h
# Staphylococcus aureus [38] = experiment: Antibacterial activity against Staphylococcus aureus KCTC 1621 in presence of 1 mM MgCl2 after 24 hrs; format: functional; details: KCTC 1621, 24 h
# [39] = Binding affinity to EYPC/cholesterol small unilamellar vesicles assessed as intrinsic tryptophan acrylamide quenching constant by fluorescence assay (reference value: 5.95 to 7.56 /M)
# RAW264.7 [40] = experiment: Anti-inflammatory activity in mouse RAW264.7 cells assessed as reduction in LPS-induced TNF-alpha production at 10 to 20 uM preincubated for 1 hr followed by LPS stimulation measured after 6 hrs by ELISA; format: functional, cell-based
# RAW264.7 [41] = experiment: Anti-inflammatory activity in mouse RAW264.7 cells assessed as reduction in LPS-induced IL-6 production at 10 to 20 uM preincubated for 1 hr followed by LPS stimulation measured after 6 hrs by ELISA; format: functional, cell-based
# RAW264.7 [42] = experiment: Anti-inflammatory activity in mouse RAW264.7 cells assessed as reduction in LPS-induced IL-6 mRNA expression at 10 uM after 3 hrs by RT-PCR analysis; format: functional, cell-based
# Staphylococcus aureus [43] = experiment: Antibacterial activity against Staphylococcus aureus KCTC 1621 assessed as cytoplasmic membrane depolarization at 2 times MIC by disC3-5 dye based fluorescence assay; format: functional, organism-based
compound,measurement,setting,value
CC[C@H](C)[C@H](NC(=O)[C@H](CCCNC(=N)N)NC(=O)[C@@H](N)CCCCN)C(=O)N[C@H](C(=O)N[C@@H](CCCCN)C(=O)N[C@@H](CC(C)C)C(=O)N[C@H](CC(C)C)C(=O)N[C@@H](CC(C)C)C(=O)N[C@@H](CCCCN)C(=O)N[C@@H](Cc1c[nH]c2ccccc12)C(=O)N[C@@H](CC(C)C)C(=O)N[C@@H](CCCNC(=N)N)C(N)=O)C(C)C,MIC,Pseudomonas aeruginosa [1],8 µM
same,fractional inhibitory concentration index (FICI),Pseudomonas aeruginosa [2],0.5
same,MIC,Staphylococcus aureus [3],2 µM
same,MIC,Staphylococcus aureus [4],2 µM
same,MIC,Staphylococcus aureus [5],4 µM
same,Ratio,Staphylococcus aureus [6],2 - 4
same,MIC,Salmonella typhimurium,2 µM
same,MBIC90,Pseudomonas aeruginosa [7],8 µM
same,Activity,RAW264.7 [8],Active
same,fold change (FC),Pseudomonas aeruginosa [9],4 - 8
same,MIC,Staphylococcus aureus [10],4 µM
same,Ratio,Enterococcus faecium [11],2 - 4
same,selectivity ratio,[12],30
same,Ratio,Pseudomonas aeruginosa [13],2 - 4
same,MIC,Escherichia coli [14],4 µM
same,Ratio,Pseudomonas aeruginosa [15],2 - 4
same,Ratio,Staphylococcus aureus [16],2 - 4
same,Ratio,Staphylococcus aureus [17],2 - 4
same,Ratio,Pseudomonas aeruginosa [18],2 - 4
same,MIC,Staphylococcus aureus [19],4 µM
same,Ratio,Pseudomonas aeruginosa [20],2 - 4
same,MIC,Escherichia coli [21],4 µM
same,MIC,Escherichia coli [22],4 µM
same,MIC,Escherichia coli [23],16 µM
same,Activity,RAW264.7 [24],Active
same,MIC,Staphylococcus aureus [25],4 µM
same,MIC,Staphylococcus aureus [26],4 µM
same,Ratio,Staphylococcus aureus [27],2 - 4
same,Activity,RAW264.7 [28],Active
same,Activity,RAW264.7 [29],Non-Toxic
same,fractional inhibitory concentration index (FICI),Pseudomonas aeruginosa [30],0.3125
same,MIC,[31],4 µM
same,Ratio,Staphylococcus aureus [32],2 - 8
same,Activity,Staphylococcus aureus [33],Active
same,MIC,Enterococcus faecium [34],4 µM
same,Ratio,Staphylococcus aureus [35],2 - 4
same,fractional inhibitory concentration index (FICI),Pseudomonas aeruginosa [36],0.3125
same,MIC,Escherichia coli [37],4 µM
same,MIC,Staphylococcus aureus [38],8 µM
same,KSV,[39],2.98 M⁻¹
same,Activity,RAW264.7 [40],Active
same,Activity,RAW264.7 [41],Active
same,Activity,RAW264.7 [42],Active
same,Activity,Staphylococcus aureus [43],Active
CC[C@H](C)[C@H](NC(=O)[C@H](CCCNC(=N)N)NC(=O)[C@@H](N)CCCCN)C(=O)N[C@H](C(=O)N[C@@H](CCCCN)C(=O)N[C@H](CC(C)C)C(=O)N[C@H](C(=O)N[C@@H](CC(C)C)C(=O)N[C@@H](CCCCN)C(=O)N[C@@H](Cc1c[nH]c2ccccc12)C(=O)N[C@@H](CC(C)C)C(=O)N[C@@H](CCCNC(=N)N)C(N)=O)[C@@H](C)CC)C(C)C,MIC,Pseudomonas aeruginosa [1],8 µM
same,fractional inhibitory concentration index (FICI),Pseudomonas aeruginosa [2],0.375
same,MIC,Staphylococcus aureus [3],2 µM
same,MIC,Staphylococcus aureus [4],2 µM
same,MIC,Staphylococcus aureus [5],8 µM
same,Ratio,Staphylococcus aureus [6],2 - 4
same,MIC,Salmonella typhimurium,2 µM
same,MBIC90,Pseudomonas aeruginosa [7],16 µM
same,Activity,RAW264.7 [8],Active
same,fold change (FC),Pseudomonas aeruginosa [9],4 - 8
same,MIC,Staphylococcus aureus [10],4 µM
same,Ratio,Enterococcus faecium [11],2 - 4
same,selectivity ratio,[12],61.2
same,Ratio,Pseudomonas aeruginosa [13],2 - 4
same,MIC,Escherichia coli [14],4 µM
same,Ratio,Pseudomonas aeruginosa [15],2 - 4
same,Ratio,Staphylococcus aureus [16],2 - 4
same,Ratio,Staphylococcus aureus [17],2 - 4
same,Ratio,Pseudomonas aeruginosa [18],2 - 4
same,MIC,Staphylococcus aureus [19],4 µM
same,Ratio,Pseudomonas aeruginosa [20],2 - 4
same,MIC,Escherichia coli [21],4 µM
same,MIC,Escherichia coli [22],4 µM
same,MIC,Escherichia coli [23],16 µM
same,Activity,RAW264.7 [24],Active
same,MIC,Staphylococcus aureus [25],8 µM
same,MIC,Staphylococcus aureus [26],4 µM
same,Ratio,Staphylococcus aureus [27],2 - 4
same,Activity,RAW264.7 [28],Active
same,Activity,RAW264.7 [29],Non-Toxic
same,fractional inhibitory concentration index (FICI),Pseudomonas aeruginosa [30],0.5
same,MIC,[31],4 µM
same,Ratio,Staphylococcus aureus [32],2 - 8
same,Activity,Staphylococcus aureus [33],Active
same,MIC,Enterococcus faecium [34],4 µM
same,Ratio,Staphylococcus aureus [35],2 - 4
same,fractional inhibitory concentration index (FICI),Pseudomonas aeruginosa [36],0.3125
same,MIC,Escherichia coli [37],8 µM
same,MIC,Staphylococcus aureus [38],4 µM
same,KSV,[39],2.9 M⁻¹
same,Activity,RAW264.7 [40],Active
same,Activity,RAW264.7 [41],Active
same,Activity,RAW264.7 [42],Active
same,Activity,Staphylococcus aureus [43],Active
